The source made the active and inactive calls. The rule behind the calls is not given here.
What was measured:
[1] = biological target: T1, Amine oxidase [flavin-containing] B (Homo sapiens, UniProt P27338); conditions: 0.5 h, time 30 min
T1 sequence (P27338 whole entry): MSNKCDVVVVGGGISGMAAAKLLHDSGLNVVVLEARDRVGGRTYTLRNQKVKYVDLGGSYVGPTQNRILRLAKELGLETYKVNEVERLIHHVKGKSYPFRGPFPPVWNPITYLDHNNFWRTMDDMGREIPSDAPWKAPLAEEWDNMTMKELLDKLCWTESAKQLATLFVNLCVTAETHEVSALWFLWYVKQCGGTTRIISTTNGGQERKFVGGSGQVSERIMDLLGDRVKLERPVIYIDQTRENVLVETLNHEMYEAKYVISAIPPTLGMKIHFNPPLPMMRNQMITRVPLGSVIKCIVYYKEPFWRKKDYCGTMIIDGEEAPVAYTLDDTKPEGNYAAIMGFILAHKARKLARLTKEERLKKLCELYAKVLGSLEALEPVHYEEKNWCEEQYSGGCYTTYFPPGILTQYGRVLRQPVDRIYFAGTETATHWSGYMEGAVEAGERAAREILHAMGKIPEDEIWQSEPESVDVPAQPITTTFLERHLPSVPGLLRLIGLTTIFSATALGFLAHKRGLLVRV

[2] = test system: Rattus norvegicus; assay: Antialzheimer activity against scopolamine-induced cognitive impairment in Sprague-Dawley rat assessed as reduction in short-term memory deficits at 1 to 3 mg/kg, ip administered for 30 mins followed by scopolamine induction measured after 30 mins by NOR test; format: functional, organism-based; conditions: dose 1-3 mg/kg, time 60.0 min

Clc1cccc(CNc2ccnc(N3CCNCC3)c2)c1
inhibition at 1 µM [1]: 3%

Clc1cccc(CNc2cc(N3CCNCC3)nc3ccccc23)c1
inhibition at 1 µM [1]: 7%

COc1cc2c(cc1OC)C(=O)C(CC1CCN(Cc3ccccc3)CC1)C2 (stereo not drawn)
Activity [2]: Active

From ChEMBL document CHEMBL5370607 (J Med Chem, 2023)
